# EP4415826B1, “SYNTHESIS AND IN VITRO ANTITUMOR ACTIVITIES OF NOVEL THIOAMIDE SUBSTITUTED PIPERAZINYL-1,2,4-TRIAZINES” (Istanbul Medipol Universitesi, priority 2021, dated 2023)
# Columns and labels:
# Assay type in all cases: cell-based
# SH-SY5Y neuroblastoma = test: MTT cell viability assay, SH-SY5Y; conditions: 24 hours incubation; for inhibition at 50 µM: Homo sapiens, SH-SY5Y
# Protocol: (§1) In the study, […] cell lines were purchased and used: SH-SY5Y(CRL-2266, ATCC, USA), C6 Glioma(CCL-107, ATCC, USA) and HEK293(CRL-1573, ATCC, USA). All cells were cultured and propagated in Dulbecco's Modified Eagle's Medium - high glucose (Cat. No:41966029, Gibco, USA), containing 10% (v/v) Foetal Bovine Serum (Cat. No:10500064, Gibco, USA), […] (10,000 U/mL)(Cat. No:15140122, Gibco, USA).
# (§2) In order to assess the viability of the cells MTT […] assay was applied. Initially cells were seeded in the 96-well plates (VWR- 10062900) at a density of 10,000 cells/well and incubated in a cell culture incubator at 37 °C with 5% CO2 for 24 hours. Then, the cells were incubated with the tested compounds at the concentration of 100µM, 50µM, 25µM and 12.5µM for 24 hours. After completion of incubation in molecules, all media were removed and 50 µl MTT (Gold Biotechnology T-030) solution was added to each well and the plates were incubated for an additional 3 hours, followed by addition of 150 µl of MTT solubilization mixture containing 0.1% Triton X-100 (Cat. No:A4025, Biomatik, USA ) and 4mM HCI (Cat. No:07102, Sigma-Aldrich, Germany) in isopropanol(Cat. No:278475, Sigma-Aldrich, Germany). The solution was slowly mixed for 15 minutes to dissolve the MTT formazan crystals and the absorbance of each well was measured with HIDEX Sense Microplate Reader(Cat. No:425-301, HIDEX, Finland) at the wavelength of 570 nm.
# C6 glioma = test: MTT cell viability assay, C6; conditions: 24 hours incubation; for inhibition at 50 µM: C6 glioma
# Protocol: as §1, §2
# HEK293 = test: MTT cell viability assay, HEK293 healthy cell line; conditions: for inhibition at 50 µM: Homo sapiens, HEK293, 24 hours incubation
# Protocol: as §1, §2
# U87MG glioblastoma = test: MTT cell viability assay, U87MG; conditions: 24 hours incubation
# Protocol: as §2
# NIH-3T3 = test: MTT cell viability assay, NIH-3T3 healthy cell line
# Protocol: as §2
# MCF7 breast tumor = test: MTT cell viability assay, MCF7
# Protocol: as §2
# [1] = Mus musculus, NIH3T3, 24 hours incubation
# [2] = Homo sapiens, MCF7, 24 hours incubation
SMILES,"IC50 (U87MG glioblastoma; Homo sapiens, U-87 MG)",IC50 (MCF7 breast tumor; [2]),inhibition at 50 µM (SH-SY5Y neuroblastoma),inhibition at 50 µM (C6 glioma),inhibition at 50 µM (HEK293),IC50 (NIH-3T3; [1]),% inhibition (50 uM) SH-SY5Y (SH-SY5Y neuroblastoma),% inhibition (50 uM) C6 (C6 glioma),% inhibition (50 uM) HEK293 (HEK293; 24 hours incubation),IC50 (U87MG glioblastoma),IC50 (MCF7 breast tumor; 24 hours incubation),IC50 (NIH-3T3; 24 hours incubation)
"S=C(Nc1ccc(Cl)cc1)N1CCN(c2nnc(-c3ccc(Cl)cc3)c(-c3ccc(Cl)cc3)n2)CC1 [Compound 1i, 4-(5,6-bis(4-chlorophenyl)-1,2,4-triazin-3-yl)-N-(4-chlorophenyl)piperazine-1-carbothioamide]",98.6 µM,–,83.6%,78.3%,68.4%,81.5 µM,–,–,–,–,–,–
"S=C(Nc1ccccc1)N1CCN(c2nnc(-c3ccccc3)c(-c3ccccc3)n2)CC1 [Compound 1b, 4-(5,6-diphenyl-1,2,4-triazin-3-yl)-N-phenylpiperazine-1-carbothioamide]",46 µM,–,84.9%,86.1%,96.1%,42.6 µM,–,–,–,–,–,–
"CCNC(=S)N1CCN(c2nnc(-c3ccccc3)c(-c3ccccc3)n2)CC1 [Compound 1a, 4-(5,6-diphenyl-1,2,4-triazin-3-yl)-N-ethylpiperazine-1-carbothioamide]",29.7 µM,62.8 µM,47.3%,37.1%,97.3%,33.2 µM,–,–,–,–,–,–
"O=[N+]([O-])c1ccc(NC(=S)N2CCN(c3nnc(-c4ccccc4)c(-c4ccccc4)n3)CC2)cc1 [Compound 1e, 4-(5,6-diphenyl-1,2,4-triazin-3-yl)-N-(4-nitrophenyl)piperazine-1-carbothioamide]",–,–,21.9%,94.4%,95.9%,–,–,–,–,–,–,–
"N.N.[Cl][Pt][Cl] [Cisplatin, reference compound]",–,–,–,–,–,–,97.80%,79.02%,52.60%,10 µM,3.55 µM,2.05 µM
"S=C(Nc1ccc(Cl)cc1)N1CCN(c2nnc(-c3ccccc3)c(-c3ccccc3)n2)CC1 [Compound 1f, N-(4-chlorophenyl)-4-(5,6-diphenyl-1,2,4-triazin-3-yl)piperazine-1-carbothioamide]",59.1 µM,–,94.1%,66.6%,73.6%,65.3 µM,–,–,–,–,–,–

# Now from value to compound, other results behind:
"IC50 (U87MG glioblastoma; Homo sapiens, U-87 MG)",IC50 (MCF7 breast tumor; [2]),SMILES,inhibition at 50 µM (SH-SY5Y neuroblastoma),inhibition at 50 µM (C6 glioma),inhibition at 50 µM (HEK293),IC50 (NIH-3T3; [1]),% inhibition (50 uM) SH-SY5Y (SH-SY5Y neuroblastoma),% inhibition (50 uM) C6 (C6 glioma),% inhibition (50 uM) HEK293 (HEK293; 24 hours incubation),IC50 (U87MG glioblastoma),IC50 (MCF7 breast tumor; 24 hours incubation),IC50 (NIH-3T3; 24 hours incubation)
68.1 µM,91.2 µM,"COc1ccc(-c2nnc(N3CCN(C(=S)Nc4ccccc4)CC3)nc2-c2ccc(OC)cc2)cc1 [Compound 1g, 4-(5,6-bis(4-methoxyphenyl)-1,2,4-triazin-3-yl)-N-phenylpiperazine-1-carbothioamide]",46.2%,63.7%,97.4%,76 µM,–,–,–,–,–,–
55 µM,61.6 µM,"COc1ccc(NC(=S)N2CCN(c3nnc(-c4ccccc4)c(-c4ccccc4)n3)CC2)cc1 [Compound 1d, 4-(5,6-diphenyl-1,2,4-triazin-3-yl)-N-(4-methoxyphenyl)piperazine-1-carbothioamide]",68%,93.3%,98%,–,–,–,–,–,–,–
–,73.1 µM,"Cc1ccc(NC(=S)N2CCN(c3nnc(-c4ccccc4)c(-c4ccccc4)n3)CC2)cc1 [Compound 1c, 4-(5,6-diphenyl-1,2,4-triazin-3-yl)-N-(p-tolyl)piperazine-1-carbothioamide]",61.6%,46.8%,92.6%,–,–,–,–,–,–,–
–,77.2 µM,"S=C(Nc1ccccc1)N1CCN(c2nnc(-c3ccc(Cl)cc3)c(-c3ccc(Cl)cc3)n2)CC1 [Compound 1h, 4-(5,6-bis(4-chlorophenyl)-1,2,4-triazin-3-yl)-N-phenylpiperazine-1-carbothioamide]",87.9%,77.9%,87.4%,40.2 µM,–,–,–,–,–,–
